Converted amounts (≈) assume the structure as drawn.
Legend:
NUGC-4 = experiment: Proliferation Inhibitory Activity on Cultured Cells (in vitro test, MTT), NUGC-4; type: cell-based; settings: Homo sapiens; NUGC-4, Stomach adenocarcinoma; 72 hours, 37° C.
Protocol: (§1) Proliferation Inhibitory Activity on Cultured Cells (in vitro test)
(§2) Cells in the logarithmic growth phase were suspended in a medium for inoculation, and seeded into each well of a 96-well plate so that the number of the cells would be 3×10^3 /180 microliters/well. To each well was added 20 microliters of a sample solution or water, and incubation was carried out at 37° C. for 72 hours. After incubation, 25 microliters of an MTT solution (2 mg/ml, prepared in PBS) was added, and incubation was further conducted at 37° C. for 4 hours. The medium was removed, and the MTT-formazane formed was dissolved in 200 microliters of dimethyl sulfoxide. The absorbance at 540 nm of this solution was measured by a microplate reader. The proliferation inhibitory rate obtained by calculation was plotted on a graph paper against the concentration of the sample. Then, the 50% inhibitory concentration (IC50) was determined for evaluation of the antitumor effect.
(§3) The results of the test carried out by using the compound of the present invention (the beta-anomer of 2'-deoxy-2'-methylidene-4'-thiocytidine synthesized in Example 1) are shown in Table 1.

KKLS = experiment: Proliferation Inhibitory Activity on Cultured Cells (in vitro test, MTT), KKLS; type: cell-based; settings: Stomach adenocarcinoma, 72 hours, 37° C.
Protocol: as §1, §2, §3

Colo320DM = experiment: Proliferation Inhibitory Activity on Cultured Cells (in vitro test, MTT), Colo320DM; type: cell-based; settings: Homo sapiens, COLO 320DM, Colon adenocarcinoma, 72 hours, 37° C.
Protocol: as §1, §2, §3

HCT-15 = experiment: Proliferation Inhibitory Activity on Cultured Cells (in vitro test, MTT), HCT-15; type: cell-based; settings: Homo sapiens; HCT-15, Colon adenocarcinoma; 72 hours, 37° C.
Protocol: as §1, §2, §3

Mia-PaCa-2 = experiment: Proliferation Inhibitory Activity on Cultured Cells (in vitro test, MTT), Mia-PaCa-2; type: cell-based; settings: Homo sapiens; Mia-PaCa-2, Pancreas carcinoma; 72 hours, 37° C.
Protocol: as §1, §2, §3

PC-10 = experiment: Proliferation Inhibitory Activity on Cultured Cells (in vitro test, MTT), PC-10; type: cell-based; settings: Homo sapiens, PC10; PC-10, Lung squamous cell carcinoma; 72 hours, 37° C.
Protocol: as §1, §2, §3

Lu-65 = experiment: Proliferation Inhibitory Activity on Cultured Cells (in vitro test, MTT), Lu-65; type: cell-based; settings: Homo sapiens; Lu-65, Large cell lung carcinoma; 72 hours, 37° C.
Protocol: as §1, §2, §3

QG-90 = experiment: Proliferation Inhibitory Activity on Cultured Cells (in vitro test, MTT), QG-90; type: cell-based; settings: Homo sapiens; QG-90, Small cell lung carcinoma; 72 hours, 37° C.
Protocol: as §1, §2, §3

QG-96 = experiment: Proliferation Inhibitory Activity on Cultured Cells (in vitro test, MTT), QG-96; type: cell-based; settings: QG-96, Small cell lung carcinoma; 72 hours, 37° C.
Protocol: as §1, §2, §3

MCF-7 = experiment: Proliferation Inhibitory Activity on Cultured Cells (in vitro test, MTT), MCF-7; type: cell-based; settings: Homo sapiens, MCF7; MCF-7, Breast carcinoma; 72 hours, 37° C.
Protocol: as §1, §2, §3

KK-47 = experiment: Proliferation Inhibitory Activity on Cultured Cells (in vitro test, MTT), KK-47; type: cell-based; settings: Homo sapiens; KK-47, Bladder carcinoma; 72 hours, 37° C.
Protocol: as §1, §2, §3

HOS = experiment: Proliferation Inhibitory Activity on Cultured Cells (in vitro test, MTT), HOS; type: cell-based; settings: Homo sapiens, Osteosarcoma, 72 hours, 37° C.
Protocol: as §1, §2, §3

MG-63 = experiment: Proliferation Inhibitory Activity on Cultured Cells (in vitro test, MTT), MG-63; type: cell-based; settings: Homo sapiens; MG-63, Osteosarcoma; 72 hours, 37° C.
Protocol: as §1, §2, §3

HEp-2 = experiment: Proliferation Inhibitory Activity on Cultured Cells (in vitro test, MTT), HEp-2; type: cell-based; settings: Homo sapiens; HEp-2, Esophagus carcinoma; 72 hours, 37° C.
Protocol: as §1, §2, §3

A375 = experiment: Proliferation Inhibitory Activity on Cultured Cells (in vitro test, MTT), A375; type: cell-based; settings: Homo sapiens, A-375; A375, Melanoma; 72 hours, 37° C.
Protocol: as §1, §2, §3

SK-Mel-28 = experiment: Proliferation Inhibitory Activity on Cultured Cells (in vitro test, MTT), SK-Mel-28; type: cell-based; settings: Homo sapiens; SK-Mel-28, Melanoma; 72 hours, 37° C.
Protocol: as §1, §2, §3

HT1080 = experiment: Proliferation Inhibitory Activity on Cultured Cells (in vitro test, MTT), HT1080; type: cell-based; settings: Homo sapiens, HT-1080; HT1080, Soft tissue sarcoma; 72 hours, 37° C.
Protocol: as §1, §2, §3

[1] = tested on: murine P388 leukemia cells; experiment: Antitumor Activity in mice bearing P388 leukemia (in vivo test); settings: BDF1 mice, 10 mg/kg intraperitoneally once a day, Day 1, 2, 5, 6
Protocol: Antitumor Activity in mice bearing P388 leukemia (in vivo test)
DBA/2 mice were intraperitoneally inoculated with murine P388 leukemia cells. On day 0, ascites was collected from the DBA/2 mice, and P388 leukemia cells were intraperitoneally implanted into BDF1 mice so that the number of the cells would be 1×10^6 /mouse. A sample was dissolved in dimethyl sulfoxide, and this sample solution was intraperitoneally administered to the mice once a day. The antitumor effect was evaluated by comparing the survival time of the administered group with that of the control group.
The results of the test carried out by using the compound of the present invention (the beta-anomer of 2'-deoxy-2'-methylidene-4'-thiocytidine synthesized in Example 1) are shown in Table 2.

murine S-180 cells = experiment: Antitumor Activity in Mice Implanted with S-180 Cells (in vivo test); settings: ICR mice, caudal vein, days 1-5 and 7-10; for Weight of Tumor (mean value ± SE): tumor removed on day 35, control 8.70 ± 1.31; for Inhibitory Rate: tumor weight on day 35
Source text: Antitumor Activity in Mice Implanted with S-180 Cells (in vivo test)
ICR mice were intraperitoneally inoculated with murine S-180 cells. On day 0, ascites was collected from the ICR mice, and Sarcoma 180 cells were subcutaneously implanted into ICR mice so that the number of the cells would be 5×10^6 /mouse. A sample was suspended in Macrogol-400/Tween 80 (6:0.8) so that the concentration thereof would be 10 times the concentration at the time of the administration thereof. Thereafter, the suspension was diluted to 1/10 with physiological saline, and injected once a day into the caudal vein of the mice on days 1-5, and on days 7-10. The antitumor effect (inhibitory rate) was evaluated by measuring the weight of the tumor removed on day 35.
The results of the test carried out by using the compound of the present invention (the beta-anomer of 2'-deoxy-2'-methylidene-4'-thiocytidine synthesized in Example 1) are shown in Table 3.

SMILES: C=C1[C@H](n2ccc(N)nc2=O)S[C@H](CO)[C@H]1O [Compound of the Invention, 2'-deoxy-2'-methylidene-4'-thiocytidine]
- IC50 (NUGC-4): 0.6 mg/L (≈ 2.35 µM)
- IC50 (KKLS): 0.77 mg/L (≈ 3.02 µM)
- IC50 (Colo320DM): 0.06 mg/L (≈ 0.235 µM)
- IC50 (HCT-15): 0.65 mg/L (≈ 2.55 µM)
- IC50 (Mia-PaCa-2): 2.4 mg/L (≈ 9.4 µM)
- IC50 (PC-10): 1.5 mg/L (≈ 5.88 µM)
- IC50 (Lu-65): 0.075 mg/L (≈ 0.294 µM)
- IC50 (QG-90): 0.32 mg/L (≈ 1.25 µM)
- IC50 (QG-96): 0.5 mg/L (≈ 1.96 µM)
- IC50 (MCF-7): 0.3 mg/L (≈ 1.18 µM)
- IC50 (KK-47): 0.38 mg/L (≈ 1.49 µM)
- IC50 (HOS): 0.45 mg/L (≈ 1.76 µM)
- IC50 (MG-63): 0.53 mg/L (≈ 2.08 µM)
- IC50 (HEp-2): 4.1 mg/L (≈ 16.1 µM)
- IC50 (A375): 0.25 mg/L (≈ 0.979 µM)
- IC50 (SK-Mel-28): 0.092 mg/L (≈ 0.36 µM)
- IC50 (HT1080): 0.21 mg/L (≈ 0.823 µM)
- MST (Median survival time) ([1]; control (DMSO) 9.0 days): 12.0 days
- T/C ([1]; survival vs control (DMSO) = 100): 133%
- Weight of Tumor (mean value ± SE) (murine S-180 cells; 20 mg/kg/day): 6.39 ± 1.07
- Inhibitory Rate (murine S-180 cells; 20 mg/kg/day): 26.6%
- Weight of Tumor (mean value ± SE) (murine S-180 cells; 100 mg/kg/day): 0.80 ± 0.24
- Inhibitory Rate (murine S-180 cells; 100 mg/kg/day): 90.8%

From patent US5811408A, “2'-deoxy-2'-(substituted or unsubstituted)methylidene-4'-thionucleosides” (Yamasa Corporation, priority 1994, dated 1998)
